Reference: PubChem BioAssay (NCI)
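Values below derive from 48-hour exposures of cells grown in 96-well plates, with endpoints linearly interpolated between the two concentrations bracketing the appropriate inhibition level. GI50 = concentration required for 50% inhibition of growth. TGI marks complete inhibition of growth.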

Tests used:
Experiment in all cases: NCI-60 cell line screen, 48 h
CCRF-CEM leukemia = system: CCRF-CEM leukemia
HL-60(TB) leukemia = system: HL-60(TB) leukemia
HOP-62 NSCLC = system: HOP-62 NSCLC
HS 578T breast = system: HS 578T breast
HT29 colon = system: HT29 colon
MOLT-4 leukemia = system: MOLT-4 leukemia
NCI-H460 lung = system: NCI-H460 lung
RPMI-8226 leukemia = system: RPMI-8226 leukemia
RXF 393 renal = system: RXF 393 renal
SF-539 CNS = system: SF-539 CNS

| SMILES | GI50 (CCRF-CEM leukemia) [µM] | TGI (CCRF-CEM leukemia) [µM] | GI50 (HL-60(TB) leukemia) [µM] | TGI (HL-60(TB) leukemia) [µM] | GI50 (HOP-62 NSCLC) [µM] | TGI (HOP-62 NSCLC) [µM] | GI50 (HS 578T breast) [µM] | TGI (HS 578T breast) [µM] | GI50 (HT29 colon) [µM] | TGI (HT29 colon) [µM] | GI50 (MOLT-4 leukemia) [µM] | TGI (MOLT-4 leukemia) [µM] | GI50 (NCI-H460 lung) [µM] | TGI (NCI-H460 lung) [µM] | GI50 (RPMI-8226 leukemia) [µM] | TGI (RPMI-8226 leukemia) [µM] | GI50 (RXF 393 renal) [µM] | TGI (RXF 393 renal) [µM] | GI50 (SF-539 CNS) [µM] | TGI (SF-539 CNS) [µM] |
| --- | --- | --- | --- | --- | --- | --- | --- | --- | --- | --- | --- | --- | --- | --- | --- | --- | --- | --- | --- | --- |
| CN(C)C=Nc1c(I)cc(I)c(CCC(=O)O)c1I | > 100 | > 100 | 82.9 | > 100 | > 100 | > 100 | > 100 | > 100 | > 100 | > 100 | > 100 | > 100 | > 100 | > 100 | > 100 | > 100 | > 100 | > 100 | > 100 | > 100 |
| CN(C)CCS(=O)(=O)Nc1cc(-c2ccc3ncc(C#N)c(Nc4ccc(F)c(Cl)c4)c3c2)cnc1Cl | 0.11 | 8.46 | 0.0708 | 0.684 | 0.248 | > 22.7 | 0.127 | 1.03 | 0.388 | > 25.9 | 0.12 | 0.547 | 0.612 | 3.72 | 0.223 | 0.897 | 0.0953 | 0.348 | 0.212 | 1.17 |
| CCCN(CCC)c1ccc(C=O)c(C)c1 | 46.8 | > 100 | 30.8 | > 84.4 | 98.1 | > 100 | 39.7 | > 100 | 33.5 | > 100 | 39.8 | > 100 | 46.5 | > 100 | 69.4 | > 100 | 34.3 | > 100 | > 70.5 | > 100 |
| Cc1ccc(OCCOCCOCCOCCOCCOc2ccc(C)n(O)c2=S)c(=S)n1O | 0.0504 | > 100 | 0.0441 | 0.638 | 0.0789 | > 84.6 | 1.67 | 74.6 | 0.0585 | > 100 | 0.0422 | > 100 | 0.0252 | 11.6 | 0.0713 | > 100 | 0.327 | 17.1 | 0.0606 | 15.1 |
| CN(C)CCOc1ccccc1NC1=C(Cl)C(=O)C(Nc2ccccc2OCCN(C)C)=C(Cl)C1=O | 0.966 | – | 0.658 | 2.06 | 39.1 | > 100 | 29.5 | > 83.1 | 0.83 | 3.5 | 0.694 | 1.91 | 27.8 | > 96.4 | > 100 | > 100 | 3.93 | 10.4 | 16.4 | > 48.3 |
| COc1cc2nc3cc([N+](=O)[O-])ccc3c(NCCNCC(C)O)c2cc1OC (centres undefined) | 0.34 | 3.13 | 2.52 | 6.66 | 0.713 | 2.87 | 1.45 | 5.51 | 0.317 | 1.28 | 0.353 | 6.21 | 0.366 | 1.6 | 1.55 | 5.52 | 0.641 | 2.34 | 0.693 | 2.47 |
| Cc1ccsc1-c1ccc2c(c1)COC2(CCCN(C)C)c1ccc(F)cc1 (centres undefined) | 2.73 | 8.56 | 1.93 | 4.59 | 3.16 | 12.8 | 2.39 | 9.07 | 2.29 | 8.45 | 2.7 | 8.43 | 1.77 | 3.49 | 2.12 | 4.88 | 2.76 | 9.44 | 1.8 | 3.4 |
| O=C1NC(=NCCc2ccccn2)S/C1=C\c1ccc2ncccc2c1 | 10.6 | > 25 | 7.66 | > 25 | 13.9 | > 25 | 9.79 | > 20.2 | 13.8 | > 25 | 8.04 | 22.6 | 8.27 | > 25 | 13.1 | > 25 | 8.97 | > 25 | 6.68 | > 25 |
| Cc1ccccc1C(C(=O)NC1CCCCC1)N(C(=O)CNc1ccc(C#N)cc1)c1cccc(F)c1 (centres undefined) | > 100 | > 100 | > 70.5 | > 100 | 3.51 | 14.4 | 7.05 | 67.4 | > 100 | > 100 | > 100 | > 100 | 34.4 | > 100 | > 100 | > 100 | 1.84 | 5.6 | 16.2 | > 59.7 |
| Cc1sc2c(c1C)C(c1ccc(Cl)cc1)=N[C@@H](CC(=O)NCCCN1CCN(C)CC1)c1nnc(C)n1-2 | 1.6 | > 100 | 0.0583 | 5.7 | 0.352 | > 100 | 0.216 | > 22.7 | 0.198 | > 100 | 22.2 | > 100 | > 63.2 | > 100 | 0.0417 | 5.38 | 2.08 | > 100 | 0.607 | > 100 |
| O=[N+]([O-])c1ccc2c(c1)C(c1ccccc1Cl)=Nc1c(n[nH]c1-c1cccnc1)N2 | > 25 | > 25 | > 25 | > 25 | > 25 | > 25 | > 19.9 | > 25 | > 25 | > 25 | > 25 | > 25 | > 25 | > 25 | > 25 | > 25 | > 25 | > 25 | > 25 | > 25 |
| CN(C)Cc1c(C(=O)NCCOc2ccc(C(=O)NO)cc2)oc2ccccc12 | 0.135 | 25.8 | 0.303 | 2.19 | 0.247 | 12.1 | 0.158 | 0.851 | 0.205 | 1.36 | 0.114 | 1.53 | 0.221 | > 100 | 0.138 | 0.662 | 0.197 | 0.643 | 0.385 | 18 |
